Measurements from US20050002876A1, “Oral care methods and products” (priority 2003, published 2005).

System: human umbilical vein endothelial cells (HUVEC)
Test: Copper-induced IL-8 release from HUVEC (IL-8 ELISA)
Format: cell-based

SMILES | IL-8 secretion as compared to controls incubated with water (50 μM CuCl2, 24 hours) | IL-8 secretion caused by CuCl2 (50 μM CuCl2 + 50, 100, 150 or 250 μM Syprine trientine hydrochloride, 24 hours, serum-free medium)
[Cl][Cu][Cl] [CuCl2] | > 2 fold | 
NCCNCCNCCN [trientine, N,N′-bis(2-aminoethyl)-1,2-ethanediamine] |  | significantly inhibited copper-induced endothelial cell IL-8 secretion
